Numbered stars: 1 amine (or outer) side, 2 acyl side, 3 side chain; on linkers, the order of the positions; unused ones are H or OH. Square brackets hold non-standard residues; d marks the D form. Peptide text beside a SMILES is read from it. * marks the point of attachment. 5FAM = O=C1OC2(c3ccc(O)cc3Oc3cc(O)ccc32)c2ccc(C(=O)*)cc21; NHCH2C6H4(4-CH2CONH2) = NC(=O)Cc1ccc(CN*)cc1; X1 = O=C(Cc1ccc(CN[*:1])cc1)[*:2]
Key:
[1] = target: T1, ASGPR (Homo sapiens, UniProt P07306); experiment: MST binding affinity of resynthesized NNP hits to ASGPR; conditions: read-out: KD of ASGPR hits by MST
T1 construct: purchased R&D Systems, Inc. 4394-AS
T1 sequence (P07306 1-291): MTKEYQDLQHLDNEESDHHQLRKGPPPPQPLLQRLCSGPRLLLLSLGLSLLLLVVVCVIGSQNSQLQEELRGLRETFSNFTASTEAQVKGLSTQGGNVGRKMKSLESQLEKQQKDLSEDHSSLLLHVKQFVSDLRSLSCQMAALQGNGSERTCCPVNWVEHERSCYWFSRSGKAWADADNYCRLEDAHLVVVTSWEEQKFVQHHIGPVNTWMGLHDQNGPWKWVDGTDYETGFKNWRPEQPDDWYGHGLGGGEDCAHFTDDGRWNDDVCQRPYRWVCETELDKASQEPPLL
In short: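 Microscale thermophoresis at room temperature, triplicate, 15, 30 and 45 min incubations; targets labeled with RED-NHS 647 dye. Buffers (all 20 mM HEPES pH 7.4 unless noted): IL-6 150 mM KCl, 10 mM MgCl2, 0.1% Pluronic F-127; IL-6R 150 mM NaCl, 10 mM MgCl2, 0.05% Tween-20; TNFα 10 mM HEPES, 150 mM NaCl, 10 mM MgCl2, 0.05% Polysorbate-20; ASGPR adds 2 mM CaCl2, 0.05% Pluronic F-127, 1 mM DTT.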

[2] = test system: ASGPR-mediated uptake in HepG2 cells; experiment: Competitive uptake assay with asialofetuin in HepG2; format: cell-based, human; conditions: test compound 0.3 μM; for Cellular uptake with 60 μM asialofetuin: 60 μM asialofetuin (200-fold excess); for Cellular uptake after pre-incubation with asialofetuin: asialofetuin 20 μM and 60 μM
Protocol: For the competitive uptake assay with the natural ligand of ASGPR (asialofetuin), cells were pre-incubated with 20 μM and 60 μM asialofetuin on ice or at 37 degrees C. for 1.5 hours, followed by the treatment with compounds for additional 2 hours before flow cytometric analysis as described above. The reduction of the uptake under asialofetuin competition was expressed by the percentage against the same treatment condition without asialofetuin.

[3] = test system: HepG2 cells (high ASGPR expressing); experiment: ASGPR uptake assay, flow cytometry, HepG2; format: cell-based, human
Protocol: The HEK293T (human embryonic kidney cells) and human hepatoma HepG2 cells were grown according to the protocols provided by the American Type Culture Collection (ATCC). When cells reached cell were seeded at ˜1.5×10^5 cells/well in 24-well culture plate for the uptake assay. After at least 16 hours of culture to allow cell attach and equilibrate, the compound treatment was set up for the uptake assay.
The fluorescein-labeled NNPs or fluorescein-labeled N-acetylgalactosamine (GalNAc) recognizing ASGRPR were added to wells at indicated concentrations and incubated for 2 hours. Two plates were prepared for each treatment condition, one serving as 4 degrees C. no internalization control that was kept on ice during incubation, while the second plate was incubated at 37 degrees C. to allow for energy dependent internalization. Following the incubation period, all plates were placed on ice and washed three times with ice-cold PBS/3% BSA/2 mM EDTA and then lifted with trypsin. Cells were transferred to a 96-well round bottom plates in FACS buffer. Cells were then analyzed by flow cytometry using LSR-HJ with HTS sampler (BD Biosciences, San Jose, CA, USA). Data (mean fluorescence intensities) and further analyzed using Flowjo software (BD Biosciences, San Jose, CA, USA). The internalized fraction was expressed as the difference between the corresponding 4 degrees C. and 37 degrees C. MFIs as previously described.

[4] = test system: HepG2 cells; experiment: Confocal imaging of HepG2 cell uptake; format: cell-based, human
Protocol: More particularly, FIG. 11B illustrates cell uptake of GalNAc (positive control), two NNP hits (ASGPR-9-4 and ASGPR-9-6) and a non-hit NNP (KRAS-1-14, negative control) in HepG2 (high ASGPR expressing) verses HEK293 (low ASGPR expressing) cells lines. FIG. 11C illustrates competition uptake assay of GalNAc and two NNP hits (ASGPR-9-4 and ASGPR-9-6) in HepG2 cells after preincubation with different concentrations of asialofetuin (a naturally occurring serum protein ASGPR ligand). Decrease in cell uptake with increasing concentrations of asialofetuin indicates blocking of ASGPR-mediated uptake. FIG. 11D illustrates example confocal images 1113, 1115, 1117, 1119 of HepG2 cell uptake (scale: x20 for the images 1113, 1115, 1117 and x40 for the image 1119). FL=fluorescein label; Cell nucleus staining with DAPI (blue). No uptake with the blank sample (DMSO) is seen at 4 degrees C.

With CC(C)C[C@H](NC(=O)[C@@H](CCCNC(=N)N)NC(=O)[C@@H](CCCCN)NC(=O)[C@@H](CCC(=O)O)NC(=O)[C@@H](Cc1ccccc1)NC(=O)Cc1ccc(CNC(=O)[C@H](Cc2ccccc2)NC(=O)[C@@H](CO)NC(=O)[C@@H](CCC(=O)O)NC(=O)[C@H]2CCCN2C(=O)[C@@H](CC(C)C)NC(=O)c2ccc3c(c2)C(=O)OC32c3ccc(O)cc3Oc3cc(O)ccc32)cc1)C(=O)NCc1ccc(CC(=O)NCC(=O)N2CCC[C@@H]2C(=O)N[C@H](CCCNC(=N)N)C(=O)N[C@H](CO)C(=O)N[C@@H](Cc2ccccc2)C(=O)NCc2ccc(CC(=O)N[C@H](Cc3ccc(O)cc3)C(=O)N[C@@H](C(=O)N3CCC[C@@H]3C(=O)N[C@H](CCCNC(=N)N)C(=O)N[C@@H](C)C(=O)NCc3ccc(CC(=O)N[C@H](CCCNC(=N)N)C(=O)N[C@H](Cc4ccccc4)C(=O)N4CCC[C@@H]4C(=O)N[C@@H](C(=O)NCC(=O)NCc4ccc(CC(=O)N[C@H](CC(C)C)C(=O)N5CCC[C@@H]5C(=O)N[C@H](CCCNC(=N)N)C(=O)N[C@@H](C(=O)NCC(=O)NCc5ccc(CC(N)=O)cc5)[C@H](C)O)cc4)C(C)C)cc3)[C@H](C)O)cc2)cc1 [ASGPR-9-6] (5FAM-[dL][dP][dE][dS]F[X1][dF][dE][dK][dR]L[X1]G[dP][dR][dS]F[X1][dY][dT][dP][dR]A[X1][dR][dF][dP][dV]G[X1][dL][dP][dR][dT]G-{NHCH2C6H4(4-CH2CONH2)}) the Kd [1] was 34 nM, the “Cellular uptake with 60 μM asialofetuin” value [2] was “mostly abolished” and the “Cellular uptake after pre-incubation with asialofetuin” value [2] was “decreased with increasing concentrations of asialofetuin”. For the same molecule, the “Internalization compared with positive control GalNAc” value ([3]; HepG2, flow cytometry) was “significantly higher than uptake of the positive control GalNAc”, the “Internalization (cell uptake) in HepG2” value ([3]; fluorescein-labeled compounds, flow cytometry, 2 hours) was “significantly higher in HepG2 cells compared to in HEK293 cells” and the “HepG2 cell uptake, confocal images, 4 degrees C.” value [4] was “not at 4 °C”. For the same molecule, the “HepG2 cell uptake, confocal images, 37 degrees C.” value [4] was “intracellular uptake is observed”.

For “THA-(GalNAc)3-(OH)9-1,3-propanediamine-fluorescein [reference compound]”, the “Cellular uptake with 60 μM asialofetuin” value [2] was “mostly abolished”, the “Cellular uptake after pre-incubation with asialofetuin” value [2] was “decreased with increasing concentrations of asialofetuin” and the “HepG2 cell uptake, confocal images, 4 degrees C.” value [4] was “no uptake”. For the same molecule, the “HepG2 cell uptake, confocal images, 37 degrees C.” value [4] was “is seen at 37 °C”.

Source: US20230393140A1, “BINDING ASSAYS INVOLVING A PLURALITY OF SYNTHETIC COMPOUNDS, TARGETS, AND COUNTER TARGETS” (SRI International, priority 2020, published 2023)
